± gives the expanded uncertainty stated by the source.
What was measured:
[1] = xn = mol fraction of the nth substance listed; conditions: 101 kPa, Liquid; for speed of sound: Linear variable-path acoustic interferometer; for mass density: Vibrating tube method
[2] = excess molar enthalpy (molar enthalpy of mixing); xn = mol fraction of the nth substance listed; conditions: 298.15 K, 101 kPa, Liquid, 2-drop calorimetry

Cc1ccncc1 [4-methylpyridine] + CCn1cc[n+](C)c1.F[B-](F)(F)F
[1]
Conditions | mass density, 293.15 K [kg/m3] | mass density, 298.15 K [kg/m3] | mass density, 303.15 K [kg/m3] | mass density, 308.15 K [kg/m3] | speed of sound, 293.15 K [m/s] | speed of sound, 298.15 K [m/s] | speed of sound, 303.15 K [m/s] | speed of sound, 308.15 K [m/s]
x2 = 0.1211 | 1022.19 ± 0.32 | 1017.25 ± 0.31 | 1012.54 ± 0.31 | 1008.4 ± 0.31 | 1485 ± 1.9 | 1464.4 ± 1.9 | 1448.9 ± 1.9 | 1428.2 ± 1.9
x2 = 0.1734 | 1048.92 ± 0.36 | 1043.93 ± 0.36 | 1039.26 ± 0.36 | 1035.43 ± 0.35 | 1499.5 ± 1.9 | 1479.3 ± 1.9 | 1464.5 ± 1.9 | 1443.7 ± 1.9
x2 = 0.2215 | 1072.35 ± 0.41 | 1067.26 ± 0.41 | 1062.71 ± 0.4 | 1059.13 ± 0.4 | 1512.2 ± 2 | 1492.7 ± 2 | 1478.1 ± 2 | 1457.6 ± 1.9
x2 = 0.2738 | 1096.49 ± 0.47 | 1091.32 ± 0.46 | 1086.94 ± 0.46 | 1083.63 ± 0.45 | 1525 ± 2 | 1506.5 ± 2 | 1492.3 ± 2 | 1472.9 ± 2
x2 = 0.3226 | 1117.74 ± 0.52 | 1112.6 ± 0.51 | 1108.38 ± 0.51 | 1105.18 ± 0.5 | 1536.7 ± 2.1 | 1519.3 ± 2 | 1505.1 ± 2 | 1486.3 ± 2
x2 = 0.3709 | 1137.61 ± 0.57 | 1132.52 ± 0.57 | 1128.45 ± 0.56 | 1125.39 ± 0.56 | 1548 ± 2.1 | 1531.8 ± 2.1 | 1517.3 ± 2.1 | 1499.9 ± 2.1
x2 = 0.4215 | 1157.13 ± 0.64 | 1152.2 ± 0.63 | 1148.31 ± 0.62 | 1145.11 ± 0.62 | 1558.7 ± 2.1 | 1543.8 ± 2.1 | 1529.7 ± 2.1 | 1514.7 ± 2.1
x2 = 0.4721 | 1175.31 ± 0.7 | 1170.56 ± 0.69 | 1166.92 ± 0.69 | 1163.65 ± 0.68 | 1568.6 ± 2.2 | 1554.4 ± 2.2 | 1541.8 ± 2.2 | 1528.9 ± 2.1
x2 = 0.5207 | 1191.56 ± 0.76 | 1186.91 ± 0.76 | 1183.59 ± 0.75 | 1180.05 ± 0.75 | 1576.9 ± 2.2 | 1564.8 ± 2.2 | 1553 ± 2.2 | 1542.6 ± 2.2
x2 = 0.5728 | 1207.52 ± 0.84 | 1203.15 ± 0.83 | 1200.15 ± 0.82 | 1196.14 ± 0.82 | 1585.7 ± 2.3 | 1573.8 ± 2.2 | 1564.2 ± 2.2 | 1557.1 ± 2.2
x2 = 0.6218 | 1221.15 ± 0.9 | 1217.12 ± 0.9 | 1214.3 ± 0.89 | 1209.95 ± 0.89 | 1593.2 ± 2.3 | 1582.3 ± 2.3 | 1574.8 ± 2.3 | 1570.3 ± 2.3
x2 = 0.6731 | 1234.15 ± 0.98 | 1230.36 ± 0.97 | 1227.81 ± 0.97 | 1222.97 ± 0.96 | 1600.4 ± 2.3 | 1589.4 ± 2.3 | 1585.1 ± 2.3 | 1582.7 ± 2.3
x2 = 0.7224 | 1245.2 ± 1.1 | 1241.78 ± 1 | 1239.32 ± 1 | 1234.16 ± 1 | 1607 ± 2.4 | 1595.7 ± 2.4 | 1594.6 ± 2.4 | 1593.7 ± 2.4
x2 = 0.7743 | 1255.49 ± 1.1 | 1252.28 ± 1.1 | 1249.84 ± 1.1 | 1244.37 ± 1.1 | 1613 ± 2.4 | 1601.8 ± 2.4 | 1602.4 ± 2.4 | 1603.4 ± 2.4
x2 = 0.8203 | 1263.45 ± 1.2 | 1260.27 ± 1.2 | 1257.85 ± 1.2 | 1252.23 ± 1.2 | 1617.3 ± 2.5 | 1606.3 ± 2.4 | 1608.5 ± 2.5 | 1609.8 ± 2.5
x2 = 0.8717 | 1270.96 ± 1.3 | 1267.85 ± 1.3 | 1265.24 ± 1.3 | 1259.65 ± 1.2 | 1622.3 ± 2.5 | 1610.6 ± 2.5 | 1612.2 ± 2.5 | 1612.8 ± 2.5
x2 = 0.9111 | 1275.81 ± 1.3 | 1272.56 ± 1.3 | 1269.8 ± 1.3 | 1264.37 ± 1.3 | 1625.3 ± 2.5 | 1613.4 ± 2.5 | 1613.3 ± 2.5 | 1611.5 ± 2.5
x2 = 0.9312 | 1278 ± 1.4 | 1274.64 ± 1.4 | 1271.69 ± 1.4 | 1266.47 ± 1.3 | 1626.7 ± 2.5 | 1614.9 ± 2.5 | 1613.3 ± 2.5 | 1609.7 ± 2.5

[2]
Conditions | excess molar enthalpy [kcal/mol]
x2 = 0.111 | -0.0311 ± 0.000741
x2 = 0.1679 | -0.0454 ± 0.00103
x2 = 0.2098 | -0.0558 ± 0.00124
x2 = 0.2387 | -0.0624 ± 0.00139
x2 = 0.2909 | -0.0731 ± 0.00163
x2 = 0.3267 | -0.0788 ± 0.00174
x2 = 0.379 | -0.0873 ± 0.00191
x2 = 0.4167 | -0.0925 ± 0.00203
x2 = 0.4834 | -0.0997 ± 0.00217
x2 = 0.5267 | -0.104 ± 0.00227
x2 = 0.5908 | -0.106 ± 0.00232
x2 = 0.615 | -0.106 ± 0.00232
x2 = 0.6786 | -0.101 ± 0.0022
x2 = 0.7234 | -0.0974 ± 0.00213
x2 = 0.7945 | -0.0841 ± 0.00184
x2 = 0.8346 | -0.0723 ± 0.0016
x2 = 0.889 | -0.0539 ± 0.00122
x2 = 0.9267 | -0.0389 ± 0.000908

c1ccncc1 [pyridine] + CCn1cc[n+](C)c1.F[B-](F)(F)F
[1]
Conditions | mass density, 293.15 K [kg/m3] | mass density, 298.15 K [kg/m3] | mass density, 303.15 K [kg/m3] | mass density, 308.15 K [kg/m3] | speed of sound, 293.15 K [m/s] | speed of sound, 298.15 K [m/s] | speed of sound, 303.15 K [m/s] | speed of sound, 308.15 K [m/s]
x2 = 0.1225 | 1057.86 ± 0.35 | 1053.89 ± 0.35 | 1049.31 ± 0.34 | 1044.82 ± 0.34 | 1486.4 ± 1.9 | 1466.7 ± 1.9 | 1450.1 ± 1.9 | 1431.5 ± 1.9
x2 = 0.1781 | 1085.74 ± 0.4 | 1081.91 ± 0.4 | 1077.49 ± 0.39 | 1073.08 ± 0.39 | 1504.8 ± 1.9 | 1486.7 ± 1.9 | 1470.9 ± 1.9 | 1453.6 ± 1.9
x2 = 0.2349 | 1111.05 ± 0.46 | 1107.24 ± 0.45 | 1102.93 ± 0.45 | 1098.58 ± 0.44 | 1521.5 ± 2 | 1505.5 ± 2 | 1489.4 ± 2 | 1473.3 ± 2
x2 = 0.2787 | 1128.56 ± 0.5 | 1124.75 ± 0.5 | 1120.49 ± 0.49 | 1116.15 ± 0.49 | 1533.4 ± 2 | 1517.7 ± 2 | 1502.2 ± 2 | 1487.6 ± 2
x2 = 0.3215 | 1144.24 ± 0.55 | 1140.37 ± 0.54 | 1136.25 ± 0.54 | 1131.85 ± 0.53 | 1544 ± 2.1 | 1528.8 ± 2 | 1513.9 ± 2 | 1499.2 ± 2
x2 = 0.3716 | 1160.99 ± 0.6 | 1156.91 ± 0.6 | 1152.96 ± 0.59 | 1148.63 ± 0.59 | 1555.6 ± 2.1 | 1541.1 ± 2.1 | 1525 ± 2.1 | 1512.2 ± 2.1
x2 = 0.4229 | 1176.47 ± 0.66 | 1172.38 ± 0.66 | 1168.48 ± 0.65 | 1164.16 ± 0.64 | 1565.7 ± 2.1 | 1550.9 ± 2.1 | 1536.1 ± 2.1 | 1523.5 ± 2.1
x2 = 0.4723 | 1189.98 ± 0.72 | 1185.87 ± 0.71 | 1182.12 ± 0.71 | 1177.75 ± 0.7 | 1574 ± 2.2 | 1560.4 ± 2.2 | 1544.5 ± 2.2 | 1533.1 ± 2.2
x2 = 0.5213 | 1202.28 ± 0.78 | 1198.15 ± 0.77 | 1194.47 ± 0.77 | 1190.17 ± 0.76 | 1582.4 ± 2.2 | 1568.3 ± 2.2 | 1552.8 ± 2.2 | 1541.1 ± 2.2
x2 = 0.5731 | 1214.14 ± 0.85 | 1209.97 ± 0.84 | 1206.44 ± 0.83 | 1202.2 ± 0.83 | 1589.6 ± 2.3 | 1575.5 ± 2.2 | 1561.4 ± 2.2 | 1549.5 ± 2.2
x2 = 0.6212 | 1224.23 ± 0.91 | 1220.11 ± 0.9 | 1216.67 ± 0.9 | 1212.48 ± 0.89 | 1596.2 ± 2.3 | 1582.6 ± 2.3 | 1568.1 ± 2.3 | 1557.4 ± 2.3
x2 = 0.6719 | 1234.08 ± 0.98 | 1230 ± 0.97 | 1226.63 ± 0.96 | 1222.55 ± 0.96 | 1603.2 ± 2.3 | 1589.2 ± 2.3 | 1575.5 ± 2.3 | 1564.3 ± 2.3
x2 = 0.7224 | 1243.17 ± 1.1 | 1239.16 ± 1 | 1235.85 ± 1 | 1231.85 ± 1 | 1609.3 ± 2.4 | 1595.2 ± 2.4 | 1583.1 ± 2.4 | 1571.5 ± 2.4
x2 = 0.7737 | 1251.76 ± 1.1 | 1247.81 ± 1.1 | 1244.54 ± 1.1 | 1240.61 ± 1.1 | 1615.2 ± 2.4 | 1601.3 ± 2.4 | 1589.7 ± 2.4 | 1578.5 ± 2.4
x2 = 0.8219 | 1259.31 ± 1.2 | 1255.42 ± 1.2 | 1252.16 ± 1.2 | 1248.26 ± 1.2 | 1619.9 ± 2.5 | 1607 ± 2.5 | 1595.8 ± 2.4 | 1584.8 ± 2.4
x2 = 0.8764 | 1267.33 ± 1.3 | 1263.49 ± 1.3 | 1260.17 ± 1.3 | 1256.28 ± 1.2 | 1625.1 ± 2.5 | 1612.2 ± 2.5 | 1602 ± 2.5 | 1590.5 ± 2.5
x2 = 0.9223 | 1273.71 ± 1.4 | 1269.86 ± 1.3 | 1266.47 ± 1.3 | 1262.53 ± 1.3 | 1628.2 ± 2.5 | 1616 ± 2.5 | 1605.5 ± 2.5 | 1594 ± 2.5
x2 = 0.9349 | 1275.41 ± 1.4 | 1271.55 ± 1.4 | 1268.13 ± 1.4 | 1264.16 ± 1.3 | 1628.9 ± 2.5 | 1616.8 ± 2.5 | 1606.2 ± 2.5 | 1594.8 ± 2.5

[2]
Conditions | excess molar enthalpy [kcal/mol]
x2 = 0.1025 | -0.0352 ± 0.000813
x2 = 0.1335 | -0.0449 ± 0.00103
x2 = 0.1727 | -0.0555 ± 0.00124
x2 = 0.2121 | -0.067 ± 0.00148
x2 = 0.2654 | -0.0785 ± 0.00172
x2 = 0.3078 | -0.087 ± 0.00191
x2 = 0.3587 | -0.0968 ± 0.00213
x2 = 0.4112 | -0.101 ± 0.00222
x2 = 0.4632 | -0.107 ± 0.00234
x2 = 0.4956 | -0.108 ± 0.00237
x2 = 0.5325 | -0.108 ± 0.00237
x2 = 0.589 | -0.106 ± 0.00232
x2 = 0.6312 | -0.1 ± 0.0022
x2 = 0.6983 | -0.091 ± 0.00198
x2 = 0.7567 | -0.0806 ± 0.00177
x2 = 0.8078 | -0.0667 ± 0.00148
x2 = 0.8654 | -0.0505 ± 0.00115
x2 = 0.9123 | -0.0344 ± 0.000813

Reference: the NIST ThermoML archive (doi:10.1016/j.jct.2012.07.007)
